ChEMBL document CHEMBL2010689 (J Med Chem, 2012)
Calls of active or inactive are those of the source. No cut-off for these calls is given here.

Experiments:
A-375 [1] = assay: Antitumor activity against human A375 cells xenografted in athymic nude mouse assessed as partial tumor regression at 0.3 mg/kg, po bid
[2] = biological target: Tyrosine-protein kinase Blk (Mus musculus, UniProt P16277); assay: Inhibition of mouse BLK using ATP as substrate
[3] = Antiangiogenic activity in HMVEC assessed as inhibition of FGF-induced migration; assay type: functional; details: Homo sapiens
Mus musculus [4] = assay: Toxicity in athymic nude mouse bearing human U251MG cells assessed as apparent toxicity at 1 to 30 mg/kg, po; assay type: organism-based, U-251; set-up: dose 1-30 mg/kg, route oral; details: in vivo
[5] = biological target: Tyrosine-protein kinase BTK (Homo sapiens, UniProt Q06187); assay: Inhibition of human BTK using ATP as substrate
Chain of Tyrosine-protein kinase BTK (Q06187 whole entry): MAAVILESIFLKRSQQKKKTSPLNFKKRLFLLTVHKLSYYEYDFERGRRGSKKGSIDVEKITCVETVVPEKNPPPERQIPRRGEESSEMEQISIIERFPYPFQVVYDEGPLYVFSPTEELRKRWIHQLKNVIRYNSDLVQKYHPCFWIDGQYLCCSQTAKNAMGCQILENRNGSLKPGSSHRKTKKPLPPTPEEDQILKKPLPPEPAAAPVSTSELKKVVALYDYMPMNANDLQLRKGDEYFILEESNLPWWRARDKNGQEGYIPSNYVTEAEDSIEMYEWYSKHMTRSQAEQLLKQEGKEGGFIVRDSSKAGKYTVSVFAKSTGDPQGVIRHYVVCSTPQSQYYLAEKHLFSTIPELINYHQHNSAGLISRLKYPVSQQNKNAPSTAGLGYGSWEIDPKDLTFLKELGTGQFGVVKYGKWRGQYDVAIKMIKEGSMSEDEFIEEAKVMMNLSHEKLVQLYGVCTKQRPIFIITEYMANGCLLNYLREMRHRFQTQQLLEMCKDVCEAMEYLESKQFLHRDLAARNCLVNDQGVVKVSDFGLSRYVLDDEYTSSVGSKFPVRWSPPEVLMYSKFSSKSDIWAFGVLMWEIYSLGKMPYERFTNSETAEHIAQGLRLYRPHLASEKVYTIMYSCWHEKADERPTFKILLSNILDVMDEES

[6] = Antiangiogenic activity in HMVEC assessed as inhibition of VEGF-induced survival; assay type: functional, Homo sapiens
[7] = Antiangiogenic activity in BAEC assessed as inhibition of VEGF-induced proliferation; assay type: functional; details: Bos taurus
Mus musculus [8] = assay: Toxicity in athymic nude mouse bearing human U251MG cells assessed as body weight change at 1 to 30 mg/kg, po; assay type: organism-based, U-251; set-up: dose 1-30 mg/kg, route oral; details: in vivo
[9] = biological target: Fibroblast growth factor receptor 3 (Homo sapiens, UniProt P22607); assay: Inhibition of human FGFR3 using ATP as substrate
[10] = biological target: Proto-oncogene tyrosine-protein kinase receptor Ret (Homo sapiens, UniProt P07949); assay: Inhibition of human RET using ATP as substrate
[11] = AUC in cynomolgus monkey at 3 mg/kg, po; assay type: ADME, organism-based, Macaca fascicularis; set-up: dose 3 mg/kg, route oral; details: plasma
P388 = assay: Antitumor activity against mouse P388 cells xenografted in DBA/2 mouse assessed as mean survival at 30 mg/kg, po bid for 7 days followed by readministeration after 14 days; assay type: functional
[12] = biological target: Receptor-type tyrosine-protein kinase FLT3 (Homo sapiens, UniProt P36888); assay: Inhibition of human FLT3 using ATP as substrate
[13] = biological target: Substance-P receptor (Homo sapiens) (UniProt P25103); assay: Inhibition of neurokinin NK1 receptor at 10 uM
Chain of Substance-P receptor (Homo sapiens) (P25103 whole entry): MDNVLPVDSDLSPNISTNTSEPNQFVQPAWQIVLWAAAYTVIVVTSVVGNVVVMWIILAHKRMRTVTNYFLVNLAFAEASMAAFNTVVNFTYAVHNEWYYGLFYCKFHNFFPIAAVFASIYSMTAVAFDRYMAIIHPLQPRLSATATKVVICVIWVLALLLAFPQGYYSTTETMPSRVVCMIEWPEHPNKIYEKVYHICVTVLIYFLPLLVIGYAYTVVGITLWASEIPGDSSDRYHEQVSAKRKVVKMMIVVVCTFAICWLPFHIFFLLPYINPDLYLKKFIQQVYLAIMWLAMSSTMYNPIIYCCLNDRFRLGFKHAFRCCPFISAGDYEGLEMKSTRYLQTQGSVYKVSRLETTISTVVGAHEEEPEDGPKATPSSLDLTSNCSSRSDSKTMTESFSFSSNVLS

[14] = biological target: Vascular endothelial growth factor receptor 2 (Homo sapiens, UniProt P35968)
Description: Inhibition of human VEGFR2 expressed in porcine PAE145 cells cotransfected with chimeric rat TRK-A/KDR receptor after 1 hr by immunofluorescence assay

[15] = biological target: Epidermal growth factor receptor (Homo sapiens) (UniProt P00533); assay: Inhibition of EGFR at 1 uM
Chain of Epidermal growth factor receptor (Homo sapiens) (P00533 whole entry): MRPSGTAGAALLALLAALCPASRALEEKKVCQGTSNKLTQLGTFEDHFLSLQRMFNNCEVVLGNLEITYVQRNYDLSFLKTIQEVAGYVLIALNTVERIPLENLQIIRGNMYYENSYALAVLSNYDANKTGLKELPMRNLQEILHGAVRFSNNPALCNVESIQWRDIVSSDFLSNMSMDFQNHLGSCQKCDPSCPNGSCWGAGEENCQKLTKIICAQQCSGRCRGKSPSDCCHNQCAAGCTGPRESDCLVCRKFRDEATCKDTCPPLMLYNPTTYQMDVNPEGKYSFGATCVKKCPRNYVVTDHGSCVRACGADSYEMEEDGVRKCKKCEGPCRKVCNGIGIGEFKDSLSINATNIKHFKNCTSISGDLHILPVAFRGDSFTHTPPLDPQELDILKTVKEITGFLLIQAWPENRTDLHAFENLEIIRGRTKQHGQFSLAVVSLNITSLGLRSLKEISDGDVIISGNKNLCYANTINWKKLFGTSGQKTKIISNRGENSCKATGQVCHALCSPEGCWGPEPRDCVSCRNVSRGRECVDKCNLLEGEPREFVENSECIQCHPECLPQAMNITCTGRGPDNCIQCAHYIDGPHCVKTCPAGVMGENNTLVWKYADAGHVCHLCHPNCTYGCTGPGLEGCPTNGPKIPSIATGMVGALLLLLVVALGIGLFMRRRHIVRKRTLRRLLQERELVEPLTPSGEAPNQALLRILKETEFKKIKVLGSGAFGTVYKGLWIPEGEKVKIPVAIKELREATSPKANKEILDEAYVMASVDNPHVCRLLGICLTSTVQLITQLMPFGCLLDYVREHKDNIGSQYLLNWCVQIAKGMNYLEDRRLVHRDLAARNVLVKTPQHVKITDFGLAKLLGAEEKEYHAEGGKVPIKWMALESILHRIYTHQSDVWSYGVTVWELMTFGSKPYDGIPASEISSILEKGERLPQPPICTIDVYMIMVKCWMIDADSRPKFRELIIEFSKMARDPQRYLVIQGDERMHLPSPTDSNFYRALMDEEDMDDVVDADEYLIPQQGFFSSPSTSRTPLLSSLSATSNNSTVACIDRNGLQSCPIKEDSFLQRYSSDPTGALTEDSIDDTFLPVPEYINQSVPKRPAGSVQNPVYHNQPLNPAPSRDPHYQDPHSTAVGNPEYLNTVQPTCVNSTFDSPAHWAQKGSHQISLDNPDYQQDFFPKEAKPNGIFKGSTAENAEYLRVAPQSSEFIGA

[16] = Metabolic stability in dog liver S9 fraction assessed as compound remaining after 2 hrs; assay type: ADME, subcellular, Canis lupus familiaris; details: read-out: Stability
[17] = Antitumor activity against human U251MG cells xenografted in athymic nude mouse assessed as complete tumor regression at 30 mg/kg, po bid; assay type: functional, U-251
A-375 [18] = assay: Antitumor activity against human A375 cells xenografted in athymic nude mouse assessed as tumor growth inhibition at 1 mg/kg, po bid measured on day 29 relative to control; assay type: functional; details: A-375, 696 h, read-out: GI
[19] = Apparent permeability across human Caco2 cells; assay type: ADME, cell-based; details: Caco-2
[20] = Antitumor activity against human U251MG cells xenografted in athymic nude mouse assessed as complete tumor regression at 10 mg/kg, po bid; assay type: functional, U-251
[21] = biological target: Tyrosine-protein kinase ABL1 (Homo sapiens) (UniProt P00519); assay: Inhibition of ABL at 1 uM
Chain of Tyrosine-protein kinase ABL1 (Homo sapiens) (P00519 whole entry): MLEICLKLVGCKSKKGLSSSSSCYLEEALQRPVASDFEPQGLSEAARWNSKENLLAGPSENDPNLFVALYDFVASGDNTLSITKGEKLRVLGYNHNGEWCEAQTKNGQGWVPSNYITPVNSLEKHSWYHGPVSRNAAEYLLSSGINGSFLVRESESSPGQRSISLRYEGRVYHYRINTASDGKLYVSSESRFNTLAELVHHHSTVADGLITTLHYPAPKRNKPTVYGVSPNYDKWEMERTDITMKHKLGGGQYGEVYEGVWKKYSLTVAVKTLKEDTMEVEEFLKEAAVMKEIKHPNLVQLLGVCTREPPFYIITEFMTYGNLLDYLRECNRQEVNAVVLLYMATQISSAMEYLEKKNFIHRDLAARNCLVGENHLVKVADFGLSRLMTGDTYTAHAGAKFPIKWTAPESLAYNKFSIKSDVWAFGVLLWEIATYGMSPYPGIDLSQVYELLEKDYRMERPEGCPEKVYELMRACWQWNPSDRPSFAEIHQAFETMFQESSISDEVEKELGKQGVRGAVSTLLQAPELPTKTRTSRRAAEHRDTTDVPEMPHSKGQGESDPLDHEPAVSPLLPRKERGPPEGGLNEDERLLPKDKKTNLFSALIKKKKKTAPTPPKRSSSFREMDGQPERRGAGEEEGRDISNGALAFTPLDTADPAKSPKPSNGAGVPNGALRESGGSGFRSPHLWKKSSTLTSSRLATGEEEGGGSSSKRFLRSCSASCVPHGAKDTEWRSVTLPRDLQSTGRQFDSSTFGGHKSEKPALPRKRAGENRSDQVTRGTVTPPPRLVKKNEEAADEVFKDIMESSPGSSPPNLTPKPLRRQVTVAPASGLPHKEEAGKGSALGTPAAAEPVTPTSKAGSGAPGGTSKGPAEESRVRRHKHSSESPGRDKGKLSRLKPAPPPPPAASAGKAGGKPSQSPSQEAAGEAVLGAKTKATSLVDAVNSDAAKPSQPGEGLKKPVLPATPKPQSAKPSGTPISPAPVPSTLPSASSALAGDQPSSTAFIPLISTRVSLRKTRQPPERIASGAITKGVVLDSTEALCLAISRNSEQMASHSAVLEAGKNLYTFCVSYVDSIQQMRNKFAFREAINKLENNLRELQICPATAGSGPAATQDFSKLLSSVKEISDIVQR

[22] = biological target: Serine/threonine-protein kinase Chk2 (Homo sapiens, UniProt O96017); assay: Inhibition of human CHK2 using ATP as substrate
Chain of Serine/threonine-protein kinase Chk2 (O96017 whole entry): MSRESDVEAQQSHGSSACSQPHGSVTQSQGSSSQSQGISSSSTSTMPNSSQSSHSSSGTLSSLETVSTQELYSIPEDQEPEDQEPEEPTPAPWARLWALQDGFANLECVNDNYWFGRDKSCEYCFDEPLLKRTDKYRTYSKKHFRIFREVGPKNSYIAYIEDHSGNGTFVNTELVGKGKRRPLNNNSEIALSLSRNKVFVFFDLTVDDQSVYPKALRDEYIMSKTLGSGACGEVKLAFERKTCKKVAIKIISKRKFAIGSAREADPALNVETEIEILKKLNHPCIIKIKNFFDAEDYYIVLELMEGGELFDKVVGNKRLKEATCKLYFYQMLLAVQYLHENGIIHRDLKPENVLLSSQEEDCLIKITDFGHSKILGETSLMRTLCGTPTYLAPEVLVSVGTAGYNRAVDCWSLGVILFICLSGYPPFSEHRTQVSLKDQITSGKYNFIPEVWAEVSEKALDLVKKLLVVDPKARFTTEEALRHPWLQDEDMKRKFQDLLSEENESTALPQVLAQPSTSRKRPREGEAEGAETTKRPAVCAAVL

Aorta = assay: Cytotoxicity against rat aortic rings; assay type: tissue-based
[23] = Antiangiogenic activity in BAEC assessed as inhibition of VEGF-induced survival; assay type: functional, Bos taurus
A-375 [24] = assay: Antitumor activity against human A375 cells xenografted in athymic nude mouse assessed as partial tumor regression at 10 mg/kg, po bid; assay type: functional
[25] = biological target: Insulin-like growth factor 1 receptor (Homo sapiens) (UniProt P08069); assay: Inhibition of IGFR1 at 1 uM
[26] = Antiangiogenic activity in BAEC assessed as inhibition of VEGF-induced migration; assay type: functional; details: Bos taurus
[27] = Antitumor activity against human U251MG cells xenografted in athymic nude mouse assessed as partial tumor regression at 10 mg/kg, po bid; assay type: functional, U-251
Cytochrome P450 2D6 = Cytochrome P450 2D6 (Homo sapiens, UniProt P10635); assay: Inhibition of CYP2D6; assay type: ADME
HUVEC [28] = assay: Antiangiogenic activity in HUVEC assessed as inhibition of VEGF-induced migration; assay type: functional, cell-based; details: Homo sapiens
[29] = Metabolic stability in human liver S9 fraction assessed as compound remaining after 2 hrs; assay type: ADME, subcellular; details: read-out: Stability
[30] = Metabolic stability in monkey liver S9 fraction assessed as compound remaining after 2 hrs; assay type: ADME, subcellular, Macaca mulatta; details: rhesus monkey, read-out: Stability
[31] = Volume of distribution in cynomolgus monkey at 0.5 mg/kg, iv; assay type: ADME, organism-based, Macaca fascicularis; set-up: dose 0.5 mg/kg, route intravenous; details: in vivo
[32] = biological target: Glycogen synthase kinase-3 beta (Homo sapiens) (UniProt P49841); assay: Inhibition of GSK3beta at 1 uM
[33] = Antitumor activity against human U251MG cells xenografted in athymic nude mouse assessed as tumor growth inhibition at 30 mg/kg, po bid measured on day 29 relative to control; assay type: functional; details: U-251, 696 h, read-out: GI
[34] = Antitumor activity against human U251MG cells xenografted in athymic nude mouse assessed as tumor growth inhibition at 10 mg/kg, po bid measured on day 29 relative to control; assay type: functional; details: U-251, 696 h, read-out: GI
A-375 [35] = assay: Antitumor activity against human A375 cells xenografted in po dosed athymic nude mouse assessed as tumor growth inhibition bid measured on day 29 relative to control; assay type: functional; details: A-375, po, 696 h, read-out: MED
[36] = Inhibition of PKC at 1 uM
HUVEC [37] = assay: Cytotoxicity against angiopoietin 1-stimulated HUVEC at > = 50 nM; assay type: cell-based; details: human
[38] = Cmax in athymic nude mouse tumor xenografted with human U251MG cells at 30 mg/kg, po; assay type: ADME, organism-based, Neoplasm, U-251; set-up: dose 30 mg/kg, route oral
[39] = Antiangiogenic activity in HMVEC assessed as inhibition of FGF-induced proliferation; assay type: functional; details: Homo sapiens
[40] = Inhibition of IRK at 1 uM
Cytochrome P450 3A4 = Cytochrome P450 3A4 (Homo sapiens, UniProt P08684); assay: Inhibition of CYP3A4; assay type: ADME
Chain of Cytochrome P450 3A4 (P08684 whole entry): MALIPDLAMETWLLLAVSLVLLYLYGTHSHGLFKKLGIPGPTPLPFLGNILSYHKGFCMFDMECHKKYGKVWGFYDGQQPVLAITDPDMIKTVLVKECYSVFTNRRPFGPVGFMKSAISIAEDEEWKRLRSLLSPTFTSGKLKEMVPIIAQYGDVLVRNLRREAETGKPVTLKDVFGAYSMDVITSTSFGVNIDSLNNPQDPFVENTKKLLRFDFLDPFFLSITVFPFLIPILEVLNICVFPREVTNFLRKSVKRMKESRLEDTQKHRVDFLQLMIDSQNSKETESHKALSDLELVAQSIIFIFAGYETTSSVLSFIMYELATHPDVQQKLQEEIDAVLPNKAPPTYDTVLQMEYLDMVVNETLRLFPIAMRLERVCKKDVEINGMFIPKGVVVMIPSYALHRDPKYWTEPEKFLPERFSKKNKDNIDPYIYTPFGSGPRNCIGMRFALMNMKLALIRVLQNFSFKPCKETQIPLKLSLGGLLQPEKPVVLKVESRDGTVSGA

Mus musculus [41] = assay: Toxicity in athymic nude mouse bearing human A375 cells assessed as body weight change at 0.1 to 10 mg/kg, po; assay type: organism-based, A-375; set-up: dose 0.1-10 mg/kg, route oral; details: in vivo
[42] = Antiangiogenic activity in HMVEC assessed as inhibition of VEGF-induced migration; assay type: functional; details: Homo sapiens
[43] = biological target: Proto-oncogene tyrosine-protein kinase Src (Homo sapiens, UniProt P12931); assay: Inhibition of human cSrc using ATP as substrate
HUVEC [44] = assay: Antiangiogenic activity in HUVEC assessed as inhibition of VEGF-induced proliferation; assay type: functional, cell-based; details: Homo sapiens
HUVEC [45] = assay: Antiangiogenic activity in HUVEC assessed as inhibition of VEGF-induced survival; assay type: functional, cell-based; details: Homo sapiens
Mus musculus [46] = assay: Toxicity in athymic nude mouse bearing human A375 cells assessed as morbidity at 0.1 to 10 mg/kg, po; assay type: organism-based, A-375; set-up: dose 0.1-10 mg/kg, route oral; details: in vivo
[47] = biological target: Macrophage colony-stimulating factor 1 receptor (Homo sapiens, UniProt P07333); assay: Inhibition of human FMS using ATP as substrate

Chain of Tyrosine-protein kinase Blk (P16277 whole entry): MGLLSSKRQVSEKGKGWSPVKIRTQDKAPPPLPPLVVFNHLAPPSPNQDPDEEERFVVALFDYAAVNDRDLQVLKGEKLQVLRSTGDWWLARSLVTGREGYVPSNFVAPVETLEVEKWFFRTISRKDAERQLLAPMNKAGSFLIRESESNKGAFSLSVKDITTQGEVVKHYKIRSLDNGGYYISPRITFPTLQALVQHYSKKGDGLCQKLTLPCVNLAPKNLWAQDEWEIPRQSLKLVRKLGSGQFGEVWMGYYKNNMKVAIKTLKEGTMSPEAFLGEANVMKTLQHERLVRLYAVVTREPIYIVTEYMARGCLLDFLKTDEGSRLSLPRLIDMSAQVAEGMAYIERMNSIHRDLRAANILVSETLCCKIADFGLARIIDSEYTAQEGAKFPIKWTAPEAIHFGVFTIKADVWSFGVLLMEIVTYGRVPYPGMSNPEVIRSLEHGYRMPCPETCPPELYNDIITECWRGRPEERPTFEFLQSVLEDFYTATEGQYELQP

## CC(C)Cn1c2ccc(Nc3ncccn3)cc2c2c3c(c4c(c21)CCc1nn(C)cc1-4)C(=O)NC3 [CEP-11981]
A-375 [1]
  Activity: 20%
[2]
  IC50: 8 nM
[3]
  EC50: 8 nM
Mus musculus [4]
  Activity: Non-toxic
[5]
  IC50: 93 nM
[6]
  EC50: 8 nM
[7]
  EC50: 8 nM
Mus musculus [8]
  Activity: Non-toxic
[9]
  IC50: 89 nM
[10]
  IC50: 5 nM
[11]
  AUC: 2480 ng·h/mL
P388
  MSD: 23 days
[12]
  IC50: 71 nM
[13]
  inhibition: > 80%
[14]
  IC50: < 10 nM
[15]
  inhibition: Active
[16]
  remaining at 2 h: 65%
[17]
  Activity: 0%
A-375 [18]
  inhibition in vivo at 1 mg/kg: 73%
[19]
  Papp: > 4 ×10⁻⁶ cm/s
[20]
  Activity: 0%
[21]
  inhibition: Active
[22]
  IC50: 140 nM
Aorta
  Activity: Non-toxic
[23]
  EC50: 8 nM
A-375 [24]
  Activity: 50%
[25]
  inhibition: Active
[26]
  EC50: 8 nM
[27]
  Activity: 20%
Cytochrome P450 2D6
  IC50: > 30000 nM
HUVEC [28]
  EC50: 8 nM
[29]
  remaining at 2 h: 79%
[30]
  remaining at 2 h: 54%
[31]
  Vd: 2.6 L/kg
[32]
  inhibition: Active
[33]
  inhibition in vivo at 30 mg/kg: 88%
[34]
  inhibition in vivo at 10 mg/kg: 75%
A-375 [35]
  minimal effective dose: 0.3 mg/kg
[36]
  inhibition: Active
HUVEC [37]
  Activity: Non-toxic
[38]
  Cmax: 401 ng/g
[39]
  EC50: 8 nM
[40]
  inhibition: Active
Cytochrome P450 3A4
  IC50: > 30000 nM
Mus musculus [41]
  Activity: Non-toxic
[42]
  EC50: 8 nM
[43]
  IC50: 37 nM
HUVEC [44]
  EC50: 8 nM
HUVEC [45]
  EC50: 8 nM
Mus musculus [46]
  Activity: Non-toxic
[47]
  IC50: 78 nM
